Where no end group is shown, it is not given here.
How the values were obtained:
[1] = test system: Human dermal fibroblasts; assay: Cell adhesion, proliferation and viability on coated substrates (PrestoBlue, Vybrant MTT, CyQUANT); type: cell-based; settings: serum-free media, days 1, 4 and 8, 50 μL peptide 100 μM or protein 500 μg/mL
Description: Human dermal fibroblasts (Invitrogen, UK) were maintained in Medium 106 supplemented with low serum growth supplement (2% v/v) and antibiotics (10 μg/mL gentamicin; 0.25 μg/mL amphotericin B) in […] culture flasks. The cells were incubated at 37° C., 5% CO2 and 95% air humidity. At 70-80% confluency cells were washed with PBS to remove the unattached cells and then adhered cells were trypsinised (trypsin/EDTA 0.025:0.01%) followed by trypsin neutraliser (all from Invitrogen, UK). The harvested cells (of passages 3 to 5) were seeded for subsequent cellular analysis.
Cells were seeded at a density of 4×10^3 in serum-free media for cell viability and proliferation assays on substrates (sterile 96 well plates) coated with 50 μL of peptide (100 μM) or protein (500 μg/mL). For cytoskeletal visualisation Nunc LabTek chambered cover glass slides were used as substrates.
Cell proliferation rates and viability were determined by PrestoBlue®, Vybrant® MTT and CyQUANT® assays on day 1, 4 and 8 (all from Life Technologies, UK).
PrestoBlue® reagent is supplied as a 10× solution and added to each well by diluting (1×) in the serum-free culture medium. The cells were incubated for 30 minutes at 37° C. in 200 μL of the reagent. The fluorescence of each well was measured with a microplate reader (BMG Labtech, Germany), with 544 nm excitation and 590 nm emission filters. Standard calibration curves were generated by plotting measured fluorescence values versus cell numbers. […]
Vybrant® MTT assay: For the colourimetric 3-(4, 5-dimethylthiazole-2-yl)-2, 5-diphenyl tetrazolium bromide (MTT) cell proliferation assay, the cell medium was removed from each well at the set time points and washed with PBS followed by the addition of MTT solution (10 μL, 5 mg/mL in PBS) and serum-free fresh media (100 μL). […] The absorbance intensity was measured by a microplate reader at 540 nm with a reference wavelength at 640 nm. Standard calibration curves were generated by plotting measured absorbance values versus cell numbers. […]

[2] = test system: E. coli; assay: Bacterial adhesion / biofilm formation on coated substrates (Live/Dead stain, PrestoBlue); type: cell-based; settings: 16-hour incubations; E. coli and B. subtilis (FIGS. 12b, 13b, 13c, 14)
Description: Bacterial inocula (E. coli and B. subtilis) were prepared in Mueller Hinton broth at A600 of 0.6, then diluted to 1:100 in the pre-warmed medium, and 50 μL of this dilution was added to each well of the coated Nunc LabTek chambered cover glass slides. Formed biofilms were analysed after 16-hour incubations using a Live/Dead BacLight bacterial viability stain kit (Molecular Probes, UK), and were visualised by a confocal laser scanning microscope (CLSM) (FV-1000, Olympus). Bacterial viability was quantitatively probed by using PrestoBlue® reagent, as used for the cell viability and proliferation assay. E. coli was seeded at the same density as above in sterile bare and coated 96-well plates. After 16 hours incubation at 37° C. (or 30° C. for B. subtilis), the biofilm formed on each substrate was carefully washed with 10 mM Tris-HCl buffer, pH 7, to remove bacteria remaining in suspension. Two hundred microliters of PrestoBlue® reagent diluted in Mueller Hinton broth were added to each well and incubated for 30 minutes at 37° C. The fluorescence of each well was measured using a microplate reader with 544 nm excitation and 590 nm emission filters.
FIG. 13b and FIG. 13c are fluorescence micrographs and total viable cell counts respectively determined by PrestoBlue® of E. coli after 16-hour incubations on different substrates. […]

[3] = test system: Human dermal fibroblasts; assay: Impedance measurements (xCELLigence) of cells on coated electrodes; type: cell-based; settings: serum-depleted medium
Description: Comparative impedance measurements using cell-electrode interfaces, which allow evaluating changes in effective impedance (resistance) to applied alternating current, provided further support for different cell proliferation patterns that were measured continuously in real time. Typically, cell attachments to electrode surfaces give impedance increases, whereas changes in cell morphology (cell rounding-up and detachment) cause impedance drops. Resistance traces that can correspond to different events including changes in cellular morphology, patterning and growth rates were recorded as a function of time, with cells seeded in a serum-depleted medium to avoid interferences by serum, which can modulate same signaling pathways for cell adhesion.
Impedance measurements were performed using an xCELLigence system according to the manufacturer's protocols (Roche, UK; ACEA Biosciences, USA). Each electrode array comprises 16 wells, each of which was first coated with assembled SaNet and protein solutions and background measurements were carried out prior to cell seeding. […] The electrical impedance of each well was automatically recorded every 5 min for the first 24 hours and then every 30 min till the end, and were normalised and expressed using the proprietary software as normalised cell index. Bacterial adhesions were measured every 5 min for over 15 hours. […]

[4] = test system: Human erythrocytes; assay: Haemolysis of human erythrocytes; type: cell-based; settings: in words
Description: (§1) Haemolysis was determined by incubating 10% (v/v) suspension of human erythrocytes with peptides. Erythrocytes were rinsed 4 times in 10 mM PBS, pH 7.2, by repeated centrifugation and re-suspension (3 min, 3000×g). Erythrocytes were incubated at room temperature for 1 hour in either deionised water (fully haemolysed control), PBS or with peptide in PBS. After centrifugation at 10 000 g for 5 min, the supernatant was separated from the pellet and the absorbance measured at 550 nm. Absorbance of the suspension treated with deionised water defined complete haemolysis. The values given in Table 2 correspond to concentrations needed to kill a half of the sample population (50% lysis of human erythrocytes) and are expressed as median lethal concentrations—LC50. All tests were done in triplicate.

[5] = Haemolysis of human erythrocytes; type: cell-based; settings: 10% (v/v) suspension, pH 7.2; 50% lysis of human erythrocytes, 1 hour, room temperature; read-out: LC50
Description: as §1

[6] = test system: E. coli (K12); type: cell-based; settings: K12, 24 h
Description: (§2) Minimum inhibitory concentrations (MIC) were determined by broth microdilution on P. aeruginosa ATCC 27853, E. coli K12, S. aureus ATCC 25723, M. luteus NCIMB 13267 and B. subtilis ATCC 6633 according to the Clinical and Laboratory Standards Institute. Typically, 100 μl of 0.5-1×10^6 CFU per ml of each bacterium in Mueller Hinton broth was incubated in 96 well plates with […] of serial two-fold dilutions of the peptides (final concentrations, 100-0 mM) at 37° C. (or 30° C. for B. subtilis and M. luteus) on a 3D orbital shaker. The absorbance was measured after peptide addition at 600 nm using a Victor 2 plate reader (Perkin Elmer). Minimum inhibitory concentrations (MICs) were defined as the lowest peptide concentration showing growth inhibition after 24 hours at 37° C. All tests were done in triplicate.

[7] = test system: B. subtilis (ATCC 6633); type: cell-based; settings: ATCC 6633, 24 h
Description: as §2

[8] = test system: M. luteus; type: cell-based; settings: 24 h
Description: as §2

[9] = test system: S. aureus (ATCC 6538); type: cell-based; settings: ATCC 6538, 24 h
[10] = test system: P. aeroginosa (ATCC 27853); type: cell-based, P. aeruginosa; settings: ATCC 27853, 24 h
Description: as §2

Row | Substance | cell adhesion and proliferation (total cells / total viable cells) [1] | resistance against bacterial adhesion / biofilm formation [2] | normalised impedance after second medium inoculation [3] | haemolytic activity [4] | CC50 at 1 hour [5] | MIC [6] | MIC [7] | MIC [8] | MIC [9] | MIC [10]
1 | KIAALKQKIAALKYEIAALE-am (KIAALKQKIAALKYEIAALE-NH2) [D2, individual linear second domain, negative non-assembling peptide control] | only negligible cellular responses |  |  |  |  |  |  |  |  | 
2 | collagen | comparable values | did not resist biofilm formation | a gradually ascending phase in impedance |  |  |  |  |  |  | 
3 | cyclo(AALEGGGEIAALEQEIAALEYKIAALKGGGKIAALKQKIAALKQEI) [SaNet] |  |  |  | negligible | > 600 µM | 100 µM | 50 µM | <50 µM | >100 µM | >100 µM
4 | fibronectin | comparable values | did not resist biofilm formation | steady decays in resistance curves |  |  |  |  |  |  | 
